Results published in paper PMC10564737, “Structure-based design of a phosphotyrosine-masked covalent ligand targeting the E3 ligase SOCS2” (Nature Communications, 2023).
“And” between values parts separate entries of the source, which are not always exact repeats. Identical values can stand only once.

Target: T1, SBC2 (Homo sapiens, UniProt O14508)
T1 construct: SOCS2 (amino acids 32–198); His6 (N, cleaved yes); made in house; host or cells: E. coli BL21(DE3)
Assay: Covalent fluorescence polarization (FP) probe displacement assay
Type: binding
Conditions: for Anisotropy based on Raw Data (485): Cycle 7 (30 min)
Source text: With the specific covalent modification of Cys111 established, we decided to fully characterize MN551 as a covalent SOCS2 inhibitor. […] (Fig. 2g, h, Supplementary Fig. 9). Due to the covalent nature of the competing inhibitor, a time-dependent reduction in the fraction of protein-bound probe is observed. […] This value illustrates reasonable specificity for a covalent inhibitor, with nonetheless scope for future optimization. In addition to characterizing the kinetic covalency parameters, we have also assessed the stability of the MN551 by monitoring its reactivity (half-life >70 min) with reduced glutathione (GSH) (Supplementary Fig. 10)[35].
To monitor the SBC2-ligand binding kinetics we designed a fluorescein-labeled small-molecule probe - compound 26. The fluorescence polarization (anisotropy) of a threefold serial dilution of 50 µM SBC2 in 10 nM of the probe in 100 mM HEPES pH 7.5, 50 mM NaCl, 0.5 mM TCEP, 2% DMSO was measured to determine the KL (Supplementary Fig. 9A) (BMG Labtech PHERAstar – firmware v1.33). Protein titration and the curves were fitted using GraphPad Prism 9, using one-site fitting models to determine the probe binding constant, KL. Samples were run in triplicate in 384 well plates, using a total volume per well of 16 μL. The bound fraction of the probe is measure using the equation:1 Fb=Af−A/Af−Ab Where,
A time-dependent reduction in probe anisotropy were measured for a 2-fold serial dilution of […] compound MN551 in 10 nM probe +300 μM SBC2. To determine the initial reversible binding affinity, the initial bound fraction of the probe at time = 0, Fbo (the y-intercept in Fb v/s Time plot, Supplementary Fig. 9B) was plotted against MN551 concentration, and the obtained IC50 is then converted to Ki (Supplementary Fig. 9C)[17]. The slope from Fb versus time graph when divided by Fbo gives rate of covalency, kobs. A plot of kobs v/s MN551 concentration using Michaelis–Menten model of GraphPad Prism 9, provides the parameters kinact (maximum potential rate of inactivation) and KI (concentration of MN551 at which kobs = kinact/2) (Supplementary Fig. 9D, E).
The observed first-order rate constant, kobs is related to KI and kinact by the equation:2 kobs=kinactI/KI+I
At [I]«[KI] the above equation is converted to3 […]
The slope from the plot of kobs against concentration of MN551 gives us the covalent efficiency parameter kinact/KI (Supp Fig. 9F)[30],[33].

[1] = MN551 48.4003 nM, Cycle 12 (55 min)
[2] = MN551 67.7604 nM, Cycle 12 (55 min)
[3] = MN551 94.8645 nM, Cycle 12 (55 min)
[4] = MN551 132.81 nM, Cycle 6 (25 min)
[5] = MN551 132.81 nM, Cycle 12 (55 min)
[6] = MN551 185.934 nM, Cycle 6 (25 min)
[7] = MN551 185.934 nM, Cycle 12 (55 min)

T1 sequence (O14508 32-198): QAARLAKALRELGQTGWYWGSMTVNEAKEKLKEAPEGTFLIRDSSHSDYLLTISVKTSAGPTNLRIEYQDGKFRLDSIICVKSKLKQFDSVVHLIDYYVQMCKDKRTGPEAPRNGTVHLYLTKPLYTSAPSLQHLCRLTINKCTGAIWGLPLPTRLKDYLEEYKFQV
T1 sequence (Q15370 1-104 partner limits assumed): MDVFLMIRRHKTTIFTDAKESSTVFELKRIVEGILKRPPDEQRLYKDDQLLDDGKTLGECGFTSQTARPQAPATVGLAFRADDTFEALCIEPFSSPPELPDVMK
T1 sequence (Q15369 17-112 partner limits assumed): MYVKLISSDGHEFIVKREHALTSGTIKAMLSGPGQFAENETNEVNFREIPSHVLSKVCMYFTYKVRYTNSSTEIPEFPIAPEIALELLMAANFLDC

SMILES: O=C(CCl)Nc1cccc(CNC(=O)[C@H](Cc2ccc(OP(=O)(O)O)cc2)NC(=O)Cc2ccc(F)cc2)c1 [MN551]
- Fb, fraction bound (MN551 48.4003 nM, Cycle 2 (5 min)): 1.049 and 0.9991 and 1.04
- Anisotropy [1]: 281.3 and 275.7 and 274.4
- Fb [1]: 1.033 and 1.011 and 0.9942
- Anisotropy normalised (0 nM MN551 = 1, free probe = 0) (MN551 48.4003 nM, Cycle 19 (90 min), n=1): 1.03 and 1.015 (2×)
- Anisotropy normalised (0 nM MN551 = 1, free probe = 0) (MN551 48.4003 nM, Cycle 20 (95 min), n=1): 1.011 and 0.999 and 0.9749
- Anisotropy based on Raw Data (485) (MN551 48.8281 nM): 280.9 and 281.7 and 280.6
- Fb, fraction bound (MN551 48.8281 nM, Cycle 2 (5 min)): 1.013 and 1.049 and 1.036
- Anisotropy (MN551 48.8281 nM, Cycle 11 (50 min)): 280 and 280.2 and 277
- Anisotropy (MN551 48.8281 nM, Cycle 12 (55 min)): 279.7 and 280.1 and 278.6
- Anisotropy data 485,520,520 (MN551 48.8281 nM, Cycle 18 (85 min), n=1): 276.3 and 276.1 and 275.6
- Anisotropy based on Raw Data (485) (MN551 67.7604 nM): 278.6 and 278.4 and 280
- Normalised anisotropy (0 nM MN551 = 1, free probe = 0) (MN551 67.7604 nM, Cycle 13 (60 min), n=1): 1.005 and 0.9558 and 1.011
- Normalised anisotropy (0 nM MN551 = 1, free probe = 0) (MN551 67.7604 nM, Cycle 14 (65 min), n=1): 1.03 and 1.001 and 1.016
- Fb, fraction bound (MN551 67.7604 nM, Cycle 2 (5 min)): 1.032 and 1.001 and 1.045
- Fb, fraction bound (MN551 67.7604 nM, Cycle 3 (10 min)): 1.036
- Anisotropy [2]: 277.4 and 276.4 and 273
- Fb [2]: 0.9963 and 1.017 and 0.9808
- Anisotropy normalised (0 nM MN551 = 1, free probe = 0) (MN551 67.7604 nM, Cycle 19 (90 min), n=1): 1.021 and 1.031 and 0.9864
- Anisotropy normalised (0 nM MN551 = 1, free probe = 0) (MN551 67.7604 nM, Cycle 20 (95 min), n=1): 0.999 and 0.9767 and 0.9903
- Anisotropy based on Raw Data (485) (MN551 94.8645 nM): 276.5 and 276.4 and 275
- Normalised anisotropy (0 nM MN551 = 1, free probe = 0) (MN551 94.8645 nM, Cycle 13 (60 min), n=1): 0.9841 and 0.9576 and 0.9759
- Normalised anisotropy (0 nM MN551 = 1, free probe = 0) (MN551 94.8645 nM, Cycle 14 (65 min), n=1): 1.002 and 0.9934 and 0.9731
- Normalised anisotropy (0 nM MN551 = 1, free probe = 0) (MN551 94.8645 nM, Cycle 15 (70 min), n=1): 1.0078
- Fb, fraction bound (MN551 94.8645 nM, Cycle 2 (5 min)): 1.026 and 1.011 and 0.9914
- Fb, fraction bound (MN551 94.8645 nM, Cycle 3 (10 min)): 1.0139 and 1.041 and 0.9705
- Anisotropy data 485,520,520 (MN551 94.8645 nM, Cycle 6 (25 min)): 273.7 and 266.4 and 265.9
- Anisotropy [3]: 274 and 273.4 and 270.5
- Fb [3]: 0.9646 and 0.9885 and 0.9568
- Anisotropy normalised (0 nM MN551 = 1, free probe = 0) (MN551 94.8645 nM, Cycle 19 (90 min), n=1): 0.9933 and 1.003 and 0.9475
- Anisotropy normalised (0 nM MN551 = 1, free probe = 0) (MN551 94.8645 nM, Cycle 20 (95 min), n=1): 0.9691 and 0.9574 and 0.9304
- Anisotropy based on Raw Data (485) (MN551 97.6562 nM): 278.3 and 282.9 and 277.5
- Fb, fraction bound (MN551 97.6562 nM, Cycle 2 (5 min)): 1.002 and 1.056 and 1.014
- Anisotropy (MN551 97.6562 nM, Cycle 11 (50 min)): 278.8 and 281.3 and 277
- Anisotropy (MN551 97.6562 nM, Cycle 12 (55 min)): 279.1 and 279.7 and 276.5
- Anisotropy data 485,520,520 (MN551 97.6562 nM, Cycle 18 (85 min), n=1): 274.3 and 275.7 and 270.8
- Anisotropy based on Raw Data (485) (MN551 132.81 nM): 277.4 and 277.3 and 272.7
- Normalised anisotropy (0 nM MN551 = 1, free probe = 0) (MN551 132.81 nM, Cycle 13 (60 min), n=1): 0.9411 and 0.9327 and 0.945
- Normalised anisotropy (0 nM MN551 = 1, free probe = 0) (MN551 132.81 nM, Cycle 14 (65 min), n=1): 0.9679 and 0.9614 and 0.9597
- Normalised anisotropy (0 nM MN551 = 1, free probe = 0) (MN551 132.81 nM, Cycle 15 (70 min), n=1): 0.9669 and 0.9677 and 0.9327
- Fb, fraction bound (MN551 132.81 nM, Cycle 2 (5 min)): 1.001 and 1.004 and 1.003
- Fb, fraction bound (MN551 132.81 nM, Cycle 3 (10 min)): 0.9889 and 1.004 and 0.9829
- Anisotropy data 485,520,520 [4]: 272.9 and 266.7 and 268.7
- Fb [4]: 1.0105 and 1.013 and 1.036
- Anisotropy [5]: 272.8 and 270.5 and 270
- Fb [5]: 0.9534 and 0.9607 and 0.952
- Anisotropy normalised (0 nM MN551 = 1, free probe = 0) (MN551 132.81 nM, Cycle 19 (90 min), n=1): 0.9528 and 0.958 and 0.9524
- Anisotropy normalised (0 nM MN551 = 1, free probe = 0) (MN551 132.81 nM, Cycle 20 (95 min), n=1): 0.9516 and 0.9273 and 0.9285
- Anisotropy based on Raw Data (485) (MN551 185.934 nM): 278.1 and 275.4 and 274.1
- Normalised anisotropy (0 nM MN551 = 1, free probe = 0) (MN551 185.934 nM, Cycle 13 (60 min), n=1): 0.927 and 0.9051 and 0.9324
- Normalised anisotropy (0 nM MN551 = 1, free probe = 0) (MN551 185.934 nM, Cycle 14 (65 min), n=1): 0.9406 and 0.935 and 0.929
- Normalised anisotropy (0 nM MN551 = 1, free probe = 0) (MN551 185.934 nM, Cycle 15 (70 min), n=1): 0.9561 and 0.9184 and 0.9202
- Fb, fraction bound (MN551 185.934 nM, Cycle 3 (10 min)): 0.9759 and 0.9879 and 0.9619
- Anisotropy data 485,520,520 [6]: 271.2 and 265.9 and 264.5
- Fb [6]: 1.005 and 0.998 and 1.018
- Anisotropy [7]: 270.4 and 269.3 and 268.1
- Fb [7]: 0.931 and 0.9492 and 0.9338
- Anisotropy normalised (0 nM MN551 = 1, free probe = 0) (MN551 185.934 nM, Cycle 19 (90 min), n=1): 0.9172 and 0.936 and 0.9397
- Anisotropy normalised (0 nM MN551 = 1, free probe = 0) (MN551 185.934 nM, Cycle 20 (95 min), n=1): 0.9014 and 0.9041 and 0.8899
- Anisotropy based on Raw Data (485) (MN551 195.312 nM): 281 and 276.5 and 273
- Fb, fraction bound (MN551 195.312 nM, Cycle 2 (5 min)): 0.9639 and 1.006 and 1.008
- Anisotropy (MN551 195.312 nM, Cycle 12 (55 min)): 272.9 and 273.5 and 273
- Anisotropy based on Raw Data (485) (MN551 260.308 nM): 270.2 and 268.2 and 264.5
- Normalised anisotropy (0 nM MN551 = 1, free probe = 0) (MN551 260.308 nM, Cycle 13 (60 min), n=1): 0.8241 and 0.8101 and 0.8658
- Normalised anisotropy (0 nM MN551 = 1, free probe = 0) (MN551 260.308 nM, Cycle 14 (65 min), n=1): 0.8651 and 0.8427 and 0.8474
- Normalised anisotropy (0 nM MN551 = 1, free probe = 0) (MN551 260.308 nM, Cycle 15 (70 min), n=1): 0.8655 and 0.8321 and 0.8452
- Fb, fraction bound (MN551 260.308 nM, Cycle 3 (10 min)): 0.9027 and 0.9023 and 0.8716
- Anisotropy data 485,520,520 (MN551 260.308 nM, Cycle 6 (25 min)): 268.3 and 257.5 and 257.9
